For 16 compounds, IC50 results are on record in patent publication US12358893B2, “Metalloenzyme inhibitor compounds” (Corxel Pharmaceuticals Hong Kong Limited, priority 2019, dated 2025).

In experiment [1] the target is T1, recombinant human CYP11B1 (Homo sapiens, UniProt P15538).
T1 construct: made in house; host or cells: V79-4 cells (Chinese hamster lung fibroblasts); enzyme-enriched microsomal fraction of the lysate
T1 sequence (P15538 25-503): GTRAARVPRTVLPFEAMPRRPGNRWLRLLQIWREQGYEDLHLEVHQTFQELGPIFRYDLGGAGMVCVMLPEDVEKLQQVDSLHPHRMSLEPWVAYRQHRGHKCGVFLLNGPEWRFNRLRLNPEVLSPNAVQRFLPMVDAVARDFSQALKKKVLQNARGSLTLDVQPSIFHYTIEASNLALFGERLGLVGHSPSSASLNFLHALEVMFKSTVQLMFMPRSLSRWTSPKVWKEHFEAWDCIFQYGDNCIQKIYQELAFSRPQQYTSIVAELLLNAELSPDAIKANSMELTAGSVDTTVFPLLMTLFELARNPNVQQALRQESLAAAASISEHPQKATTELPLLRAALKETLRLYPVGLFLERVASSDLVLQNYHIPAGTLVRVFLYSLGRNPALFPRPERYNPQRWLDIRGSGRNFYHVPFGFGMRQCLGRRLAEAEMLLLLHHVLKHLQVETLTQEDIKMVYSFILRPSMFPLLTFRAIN
Briefly: CYP11B1 enzyme assay with enzyme enriched microsomes, cortisol measured by LC-MS. The following applies: microsomes from V79-4 cells; 11-deoxycortisol at Km; read-out: hCYP11B1 IC50. The format is biochemical. The procedure:
(§1) V79-4 cells expressing recombinant andrenodoxin and andrenodoxin reductase with either recombinant human CYP11B2 or CYP11B1 were prepared according to methods previously described (LaSala et al 2009 Anal Bioch 394:56-61). An enzyme enriched microsomal fraction was prepared from cellular lysates and subsequently used as the enzyme source for determining inhibitor IC50s. The substrate Km values were experimentally determined for 11-deoxycorticosterone (CYP11B2 substrate) and 11-deoxycortisol (CYP11B1 substrate). Enzyme assays for inhibitor screening employed CYP11B2 and CYP11B1 enzyme enriched microsomes and were run at the Km of the respective substrates. Products of the enzyme reactions, aldosterone for CYP11B2 or cortisol for CYP11B1, were measured by LC-MS. Assays were run under conditions of less than 20% substrate turnover. Inhibitor IC50s were generated by determining the product formation in the absence or presence of inhibitor at various concentrations. In the absence of the test compound, the product formed (Pt) in each data set was defined as 100% activity. In the absence of enzyme, the product formed (Pb) in each data set was defined as 0% activity. The percent activity in the presence of each inhibitor was calculated according to the following equation: % activity=(P−Pb)/(Pt−Pb), where P=the product formed in the presence of the inhibitor. The IC50 value was defined as the inhibitor concentration causing a 50% decrease in activity relative to the no inhibitor control reaction.

In experiment [2] the target is T2, recombinant human CYP11B2 (Homo sapiens, UniProt P19099).
T2 construct: made in house; host or cells: V79-4 cells (Chinese hamster lung fibroblasts); enzyme-enriched microsomal fraction of the lysate
T2 sequence (P19099 25-503): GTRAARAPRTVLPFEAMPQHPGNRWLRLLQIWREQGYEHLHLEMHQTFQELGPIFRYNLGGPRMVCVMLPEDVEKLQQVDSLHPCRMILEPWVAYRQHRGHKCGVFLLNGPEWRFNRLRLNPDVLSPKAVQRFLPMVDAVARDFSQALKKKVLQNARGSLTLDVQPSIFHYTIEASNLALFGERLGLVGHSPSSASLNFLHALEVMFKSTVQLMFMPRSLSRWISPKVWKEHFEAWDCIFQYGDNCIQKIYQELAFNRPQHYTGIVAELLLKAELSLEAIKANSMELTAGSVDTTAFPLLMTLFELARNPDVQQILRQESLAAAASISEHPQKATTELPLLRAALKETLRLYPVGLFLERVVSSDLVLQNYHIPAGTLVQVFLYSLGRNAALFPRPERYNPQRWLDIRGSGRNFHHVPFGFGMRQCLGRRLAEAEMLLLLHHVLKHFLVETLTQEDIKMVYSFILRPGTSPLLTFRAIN
Briefly: CYP11B2 enzyme assay with enzyme enriched microsomes, aldosterone measured by LC-MS. The format is biochemical. The following applies: microsomes from V79-4 cells; 11-deoxycorticosterone at Km; read-out: hCYP11B2 IC50. The procedure: as §1

Turning to `Fc1ccc2nc(-n3cnc4ccccc43)n(C3CC3)c2c1` [Example 1, 1′-cyclopropyl-6′-fluoro-1′H-1,2′-bibenzo[d]imidazole], the IC50 (commonly the concentration that gives 50% inhibition) lay within 100 to 1000 nM in experiment [1] and 1 to 100 nM in experiment [2].

`Fc1ccc2nc(-n3cnc4ccccc43)n(C3CC3)c2c1F` [Example 2, 1′-cyclopropyl-6′,7′-difluoro-1′H-1,2′-bibenzo[d]imidazole]: the IC50 lay within 1000 to 10000 nM in experiment [1] and 1 to 100 nM in experiment [2].

On to `Fc1ccc2nc(-n3cnc4c(F)c(F)ccc43)n(C3CC3)c2c1` [Example 3, 1′-cyclopropyl-4,5,6′-trifluoro-1′H-1,2′-bibenzo[d]imidazole], for which the IC50 in experiment [1] was more than 10000 nM; in experiment [2], 1000 to 10000 nM.

Consider `Fc1ccc2nc(-n3cnc4cc(F)c(F)cc43)n(C3CC3)c2c1` [Example 4, 1′-cyclopropyl-5,6,6′-trifluoro-1′H-1,2′-bibenzo[d]imidazole], for which the IC50 in experiment [1] lay within 1000 to 10000 nM; in experiment [2] it was 1 to 100 nM.

Regarding `COc1cc2ncn(-c3nc4ccc(F)cc4n3C3CC3)c2cc1OC` [Example 5, 1′-cyclopropyl-6′-fluoro-5,6-dimethoxy-1′H-1,2′-bibenzo[d]imidazole], the IC50 lay in the range of 1000 to 10000 nM in experiment [1] and 1 to 100 nM in experiment [2].

With `N#Cc1ccc2c(c1)ncn2-c1nc2ccc(F)cc2n1C1CC1` [Example 6, 1′-cyclopropyl-6′-fluoro-1′H-[1,2′-bibenzo[d]imidazole]-5-carbonitrile], the half-inhibitory concentration (IC50) lay in the range of 1000 to 10000 nM in experiment [1] and 1 to 100 nM in experiment [2].

`N#Cc1ccc2ncn(-c3nc4ccc(F)cc4n3C3CC3)c2c1` [Example 7, 1′-cyclopropyl-6′-fluoro-1′H-[1,2′-bibenzo[d]imidazole]-6-carbonitrile]: the concentration for half-maximal inhibition (IC50) is more than 10000 nM in experiment [1] and 100 to 1000 nM in experiment [2].

Turning to `Cc1ccc2c(c1)ncn2-c1nc2ccc(F)cc2n1C1CC1` [Example 8, 1′-cyclopropyl-6′-fluoro-5-methyl-1′H-1,2′-bibenzo[d]imidazole], the IC50 in experiment [1] is 100 to 1000 nM; in experiment [2] it was 1 to 100 nM.

For the compound `Cc1ccc2ncn(-c3nc4ccc(F)cc4n3C3CC3)c2c1` [Example 9, 1′-cyclopropyl-6′-fluoro-6-methyl-1′H-1,2′-bibenzo[d]imidazole], the IC50 in experiment [1] was in the range of 100 to 1000 nM; in experiment [2], 1 to 100 nM.

On to `CCc1ccc2c(c1)ncn2-c1nc2ccc(F)cc2n1C1CC1` [Example 10, 1′-cyclopropyl-5-ethyl-6′-fluoro-1′H-1,2′-bibenzo[d]imidazole], for which the IC50 is 100 to 1000 nM in experiment [1] and 1 to 100 nM in experiment [2].

For the compound `CCc1ccc2ncn(-c3nc4ccc(F)cc4n3C3CC3)c2c1` [Example 11, 1′-cyclopropyl-6-ethyl-6′-fluoro-1′H-1,2′-bibenzo[d]imidazole], the 50% inhibitory concentration (IC50) in experiment [1] is 1000 to 10000 nM; in experiment [2], 1 to 100 nM.

On to `COc1ccc2c(c1)ncn2-c1nc2ccc(F)cc2n1C1CC1` [Example 12, 1′-cyclopropyl-6′-fluoro-5-methoxy-1′H-1,2′-bibenzo[d]imidazole], for which the IC50 is 100 to 1000 nM in experiment [1] and 1 to 100 nM in experiment [2].

With `COc1ccc2ncn(-c3nc4ccc(F)cc4n3C3CC3)c2c1` [Example 13, 1′-cyclopropyl-6′-fluoro-6-methoxy-1′H-1,2′-bibenzo[d]imidazole], the IC50 lay in the range of 100 to 1000 nM in experiment [1] and 1 to 100 nM in experiment [2].

Take `Cc1cccc2c1ncn2-c1nc2ccc(F)cc2n1C1CC1` [Example 14, 1′-cyclopropyl-6′-fluoro-4-methyl-1′H-1,2′-bibenzo[d]imidazole]: the results for the IC50 in experiment [1] and in experiment [2] were more than 10000 nM and 1000 to 10000 nM, respectively.

Turning to `Fc1cc2ncn(-c3nc4ccc(F)c(F)c4n3C3CC3)c2cc1F` [Example 15, 1′-cyclopropyl-5,6,6′,7′-tetrafluoro-1′H-1,2′-bibenzo[d]imidazole], the IC50 in experiment [1] is 1000 to 10000 nM; in experiment [2], 1 to 100 nM.

Regarding `Fc1cc2nc(-n3cnc4ccccc43)n(C3CC3)c2cc1F` [Example 16, 1′-cyclopropyl-5′,6′-difluoro-1′H-1,2′-bibenzo[d]imidazole], the half-maximal inhibitory concentration (IC50) in experiment [1] lay within 100 to 1000 nM; in experiment [2] it was 1 to 100 nM.
